Among the data in the NIST ThermoML archive (doi:10.1021/acs.jced.8b00302) are mass density values, retold here.

By mass density is commonly meant the mass of a sample divided by its volume.

Numbers after ± are expanded uncertainties.

A short description of the data set: wn = mass fraction of the nth substance listed. The conditions noted are these: 298.2 K, 100 kPa, Liquid, Gravity bottle method.

Consider `O=S(=O)([O-])[O-].[Rb+].[Rb+]` [rubidium sulfate] + O, for which the mass density (w1 = 0.6463) came to 2016.2 ± 10 kg/m3.
With `O=S(=O)([O-])[O-].[Cs+].[Cs+]` [cesium sulfate] + O, the mass density is, setting by setting: (w1 = 0.3365) 1363.1 ± 10 kg/m3; (w1 = 0.6463) 2016.2 ± 10 kg/m3.
As for `O=S(=O)([O-])[O-].[Mg+2]` [magnesium sulfate] + O, the mass density (w1 = 0.2743) was 1293 ± 10 kg/m3.
